Data published in ChEMBL document CHEMBL1154109, “In vitro biological activity and structural analysis of 2,4-diamino-5-(2'-arylpropargyl)pyrimidine inhibitors of Candida albicans” (Bioorg Med Chem, 2009).
Values after ≈ are worked out from the molar mass of the structure shown. Active and inactive are the calls of the source. No cut-off for these calls is given here.

How the values were obtained:
Dihydrofolate reductase [1] = biological target: T1, Dihydrofolate reductase (Candida albicans, UniProt P22906)
T1 sequence (P22906 whole entry): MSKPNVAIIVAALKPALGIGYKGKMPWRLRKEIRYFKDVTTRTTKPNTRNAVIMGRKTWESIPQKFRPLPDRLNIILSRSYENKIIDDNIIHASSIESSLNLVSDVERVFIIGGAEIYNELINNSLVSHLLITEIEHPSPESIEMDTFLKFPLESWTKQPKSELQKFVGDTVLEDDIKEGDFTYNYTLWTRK
Description: Inhibition of Candida albicans DHFR expressed in Escherichia coli BL21 (DE3) assessed as rate of NADPH consumption using dihydrofolate as substrate

Candida albicans [2] = system: Candida albicans
[3] = Cytotoxicity against human MCF10A cells after 4 hrs by alamar blue assay; conditions: MCF-10A
Candida albicans [4] = assay: Antifungal activity against Candida albicans by alamar blue assay
Dihydrofolate reductase [5] = biological target: T2, Dihydrofolate reductase (Homo sapiens, UniProt P00374)
T2 sequence (P00374 whole entry): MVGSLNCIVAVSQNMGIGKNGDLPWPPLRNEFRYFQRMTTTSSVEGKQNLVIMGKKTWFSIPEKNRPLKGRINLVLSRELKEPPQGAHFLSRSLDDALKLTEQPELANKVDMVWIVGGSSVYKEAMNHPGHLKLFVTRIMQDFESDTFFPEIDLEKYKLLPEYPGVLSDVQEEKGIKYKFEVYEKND
Description: Inhibition of human DHFR assessed as rate of NADPH consumption using dihydrofolate as substrate

Row | SMILES | IC50 (Dihydrofolate reductase [1]) [µM] | MIC (Candida albicans [2]) | further results
1 | COc1cc(CC#Cc2cnc(N)nc2N)cc(OC)c1OC | 0.82 | inactive | –
2 | COc1cc(CC#Cc2c(C)nc(N)nc2N)cc(OC)c1OC | 0.18 | inactive | –
3 | COc1cc(-c2ccccc2)cc([C@@H](C)C#Cc2c(C)nc(N)nc2N)c1 | 0.033 | – | –
4 | COc1cc(-c2ccccc2)cc([C@H](C)C#Cc2c(C)nc(N)nc2N)c1 | 0.037 | – | –
5 | CCc1nc(N)nc(N)c1C#CCc1cc(OC)c(OC)c(OC)c1 | 0.018 | – | –
6 | COc1ccc(OC)c(CC#Cc2c(C)nc(N)nc2N)c1 | 0.41 | – | –
7 | CCc1nc(N)nc(N)c1C#CCc1cc(OC)ccc1OC | 0.1 | – | IC50 [3]: 63 µM
8 | CCCc1nc(N)nc(N)c1C#CCc1cc(OC)ccc1OC | 0.045 | – | –
9 | COc1ccc(OC)c(CC#Cc2cnc(N)nc2N)c1 | 1.4 | – | –
10 | COc1cc(CC#Cc2c(C)nc(N)nc2N)cc(-c2c(C)cccc2C)c1 | 0.055 | – | –
11 | COc1cc(C(C)C#Cc2cnc(N)nc2N)cc(OC)c1OC (racemic) | 0.18 | inactive | –
12 | COc1cc(C(C#Cc2cnc(N)nc2N)OC)cc(OC)c1OC (racemic) | 2.5 | inactive | –
13 | COc1cc(C(C#Cc2c(C)nc(N)nc2N)OC)cc(OC)c1OC (racemic) | 0.32 | inactive | –
14 | COc1cc(C(O)C#Cc2c(C)nc(N)nc2N)cc(OC)c1OC (racemic) | 0.98 | inactive | IC50 [3]: 1000 µM
15 | COc1cc(C(C)C#Cc2c(C)nc(N)nc2N)cc(OC)c1OC (racemic) | 0.11 | – | –
16 | COc1cc(C(O)C#Cc2cnc(N)nc2N)cc(OC)c1OC (racemic) | 11.9 | inactive | –
17 | COc1cc(-c2c(C)cccc2C)cc(C(C)C#Cc2c(C)nc(N)nc2N)c1 (racemic) | 0.045 | – | –

Row | SMILES | IC50 (Dihydrofolate reductase [1]) [µM] | MIC (Candida albicans [2]) | further results
18 | COc1cc(-c2c(C(C)C)cccc2C(C)C)cc(C(C)C#Cc2c(C)nc(N)nc2N)c1 (racemic) | 0.038 | inactive | –
19 | COc1cc(C(C)C#Cc2c(C)nc(N)nc2N)ccc1-c1ccccc1 (racemic) | 0.055 | – | IC50 [3]: 80 µM
20 | COc1cc(C(C)C#Cc2c(C)nc(N)nc2N)ccc1-c1c(C)cccc1C (racemic) | 0.032 | inactive | –
21 | COc1cc(C(C)C#Cc2c(C)nc(N)nc2N)ccc1-c1c(C(C)C)cccc1C(C)C (racemic) | 0.041 | inactive | –
22 | COc1cc(-c2ccccc2C)cc(C(C)C#Cc2c(C)nc(N)nc2N)c1 (racemic) | 0.045 | – | –
23 | COc1cc(-c2ccccc2)cc(C(C)C#Cc2c(C)nc(N)nc2N)c1 (racemic) | – | – | MIC (Candida albicans [4]): 90 µg/mL (≈ 251 µM)
24 | COc1ccc(-c2cc(OC)cc(C(C)C#Cc3c(C)nc(N)nc3N)c2)cc1 (racemic) | 0.03 | – | –
25 | COc1ccc(OC)c(C(O)C#Cc2c(C)nc(N)nc2N)c1 (racemic) | 0.73 | – | –
26 | COc1ccc(OC)c(C(C)C#Cc2c(C)nc(N)nc2N)c1 (racemic) | 0.048 | – | IC50 (Dihydrofolate reductase [5]): 0.4 µM
27 | CCC(C#Cc1c(C)nc(N)nc1N)c1cc(OC)c(OC)c(OC)c1 (racemic) | 0.045 | – | IC50 (Dihydrofolate reductase [5]): 0.2 µM
28 | COc1cc(-c2ccccc2)cc(C(O)C#Cc2c(C)nc(N)nc2N)c1 (racemic) | 0.091 | inactive | –
29 | COc1cc(-c2cc(C)cc(C)c2)cc(C(C)C#Cc2c(C)nc(N)nc2N)c1 (racemic) | 0.017 | – | –
30 | CCc1nc(N)nc(N)c1C#CC(C)c1cc(OC)c(OC)c(OC)c1 (racemic) | 0.02 | – | –
31 | COc1cc(-c2ccc(C(C)(C)C)cc2)cc(C(C)C#Cc2c(C)nc(N)nc2N)c1 (racemic) | 0.034 | – | IC50 [3]: 50 µM
32 | COc1cc(C(C#Cc2c(C)nc(N)nc2N)C(C)C)cc(OC)c1OC (racemic) | 0.033 | – | –
33 | COc1ccc(OC)c(C(C#Cc2c(C)nc(N)nc2N)OC)c1 (racemic) | 0.55 | inactive | IC50 (Dihydrofolate reductase [5]): 0.06 µM
34 | COc1cc(-c2ccc(C)cc2)cc(C(C)C#Cc2c(C)nc(N)nc2N)c1 (racemic) | 0.022 | – | –
